Measured values: US20240174618A1, “SUBSTITUTED (2-HETEROARYLOXYPHENYL)SULFONATES, SALTS THEREOF AND THEIR USE AS HERBICIDAL AGENTS” (Bayer Aktiengesellschaft, priority 2021, published 2024)

Key:
Assay type in all cases: in vivo
[1] = test system: Setaria viridis (SETVI); assay: A. Herbicidal pre-emergence efficacy, SETVI
Procedure, shortened: (§1)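 Applied before emergence onto covering soil at rates of 1280 g/ha or less, using 600 L/ha spray water with 0.5% additive. Scoring: visual % efficacy after ~3 weeks, greenhouse.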

[2] = test system: Stellaria media (STEME); assay: A. Herbicidal pre-emergence efficacy, STEME
Procedure, shortened: as §1

[3] = test system: Triticum aestivum (TRZAS); assay: D. Pre-emergence effect on useful plants, TRZAS; conditions: useful plant
Procedure, shortened: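 Seeds sown in pots and covered with soil; WP or EC formulations sprayed on the soil surface as aqueous suspension/emulsion with 0.5% additive at 600 l/ha water. Plants grown in greenhouse; crop damage scored visually after about 3 weeks as % versus untreated controls (100% = dead, 0% = like control).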

[4] = test system: Amaranthus retroflexus (AMARE); assay: C. Herbicidal pre-emergence efficacy, AMARE; conditions: scored after about 3 weeks
Procedure, shortened: (§2)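 Pre-emergence test: formulated compounds sprayed as aqueous suspension or emulsion with 0.5% additive at 600 l/ha onto soil covering sown seeds, at rates corresponding to 320 g/ha or less. After about 3 weeks in greenhouse, efficacy scored visually as percent versus untreated controls (100% = plants dead).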

[5] = test system: Amaranthus retroflexus (AMARE); assay: B. Herbicidal post-emergence efficacy, AMARE
Procedure, shortened: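 Weeds grown in sandy loam in greenhouse and sprayed at the one-leaf stage, 2–3 weeks after sowing, with WP or EC formulations plus 0.5% additive at 600 L/ha water. Injury rated visually versus untreated controls after about 3 weeks (100% = dead, 0% = like control); rates up to 1280 g/ha.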

[6] = test system: Polygonum convolvulus (POLCO); assay: C. Herbicidal pre-emergence efficacy, POLCO; conditions: scored after about 3 weeks
Procedure, shortened: as §2

[7] = test system: Abutilon theophrasti (ABUTH); assay: E. Herbicidal post-emergence efficacy, ABUTH
Procedure, shortened: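 Visual scoring against untreated plants was done roughly 3 weeks after spraying (0% = no effect, 100% = plants dead). Spray application at 320 g/ha or lower, 600 l/ha water with 0.5% additive, was made onto green parts of one-leaf-stage greenhouse plants grown 2-3 weeks in sandy loam.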

[8] = test system: Digitaria sanguinalis (DIGSA); assay: C. Herbicidal pre-emergence efficacy, DIGSA; conditions: scored after about 3 weeks
Procedure, shortened: as §2

SMILES	Pre-emergence efficacy against SETVI ([1]; dosage 80 g/ha) [%]	Pre-emergence efficacy against SETVI ([1]; dosage 320 g/ha) [%]	Pre-emergence efficacy against SETVI ([1]; dosage 1280 g/ha) [%]	Pre-emergence efficacy against STEME ([2]; dosage 80 g/ha) [%]	Pre-emergence efficacy against STEME ([2]; dosage 320 g/ha) [%]	Pre-emergence efficacy against STEME ([2]; dosage 1280 g/ha) [%]	Pre-emergence efficacy against TRZAS in % ([3]; application rate 80 g/ha) [%]	Pre-emergence efficacy against AMARE ([4]; 80 g/ha) [%]	Pre-emergence efficacy against AMARE ([4]; 320 g/ha) [%]	Post-emergence efficacy against AMARE ([5]; 80 g/ha) [%]	Post-emergence efficacy against AMARE ([5]; 320 g/ha) [%]	Post-emergence efficacy against AMARE ([5]; 1280 g/ha) [%]	Pre-emergence efficacy against POLCO ([6]; 320 g/ha) [%]	Post-emergence efficacy against ABUTH in % ([7]; application rate 80 g/ha) [%]	Post-emergence efficacy against ABUTH in % ([7]; application rate 320 g/ha) [%]	Pre-emergence efficacy against POLCO ([6]; 80 g/ha) [%]	Pre-emergence efficacy against DIGSA ([8]; 80 g/ha) [%]	Pre-emergence efficacy against DIGSA ([8]; 320 g/ha) [%]	Pre-emergence efficacy against TRZAS in % ([3]; application rate 320 g/ha) [%]
CCCS(=O)(=O)Oc1ccccc1Oc1ncc(Cl)cn1 [Example I-3]	100	100	100	100	100	100	10	100	100	90	100	100	100	–	–	–	–	–	–
O=S(=O)(CCCC(F)(F)F)Oc1ccccc1Oc1ncc(Cl)cn1 [Example I-10]	90	90	100	100	100	100	–	100	100	90	90	100	100	90	100	90	100	100	–
O=S(=O)(CCCCl)Oc1cccc(F)c1Oc1ncc(Cl)cn1 [Example I-13]	–	–	100	100	100	100	10	–	100	–	90	100	–	–	–	–	–	–	10
O=S(=O)(CCCCCl)Oc1ccccc1Oc1ncc(Cl)cn1 [Example I-15]	100	100	100	100	100	100	–	90	100	100	100	100	100	–	80	80	100	100	–
O=S(=O)(CCCC(F)(F)F)Oc1c(Cl)cccc1Oc1ncc(Cl)cn1 [Example I-39]	90	100	100	–	100	100	–	100	100	–	90	90	100	80	100	100	100	100	–
O=S(=O)(CCC(F)(F)F)Oc1c(F)cccc1Oc1ncc(Br)cn1 [Example I-40]	100	100	100	–	100	100	–	100	100	–	90	90	100	90	100	100	100	100	–
O=S(=O)(CCC(F)(F)F)Oc1c(Br)cccc1Oc1ncc(F)cn1 [Example I-43]	–	100	100	–	100	100	0	100	100	–	–	–	90	–	–	90	–	100	–
O=S(=O)(CCC(F)(F)F)Oc1c(F)cccc1Oc1ncc(Cl)cn1 [Example I-48]	90	90	100	90	100	100	–	100	100	90	90	90	100	90	100	100	100	100	–
O=S(=O)(CCCC(F)(F)F)Oc1c(F)cccc1Oc1ncc(Cl)cn1 [Example I-49]	90	100	100	100	100	100	–	100	100	90	90	100	100	80	80	100	100	100	–
O=S(=O)(CC1CC(F)(F)C1)Oc1c(F)cccc1Oc1ncc(Cl)cn1 [Example I-53]	100	100	100	100	100	100	–	100	100	90	90	90	100	100	100	100	100	100	–
O=S(=O)(CCCC(F)F)Oc1c(F)cccc1Oc1ncc(Cl)cn1 [Example I-56]	100	100	100	100	100	100	–	100	100	90	90	90	100	–	100	100	100	100	–
